Measured values as given in patent US10800792B2, “Inhibitors of Bruton's tyrosine kinase and method of their use” (JANSSEN PHARMACEUTICA NV, priority 2015, dated 2020).

Target: unphosphorylated-BTK kinase domain (UP-BTK), GST-tagged human BTK (389-659aa) (Homo sapiens (Human), UniProt Q06187)
Assay: BTK kinase Lanthascreen binding assay
Settings: pIC50 = negative log of the IC50 in molar, 60 minutes incubation, 50 nM Tracer 236; for IC50: read-out: BTK_I_binding pIC50 (converted)
Procedure, shortened: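 Values are pIC50, i.e. negative log of IC50 in molar, derived from concentration–response fitting. Each compound competes with a fluorescently labelled tracer for the unphosphorylated kinase domain.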

Sequence of unphosphorylated-BTK kinase domain (UP-BTK), GST-tagged human BTK (389-659aa) (Q06187 389-659): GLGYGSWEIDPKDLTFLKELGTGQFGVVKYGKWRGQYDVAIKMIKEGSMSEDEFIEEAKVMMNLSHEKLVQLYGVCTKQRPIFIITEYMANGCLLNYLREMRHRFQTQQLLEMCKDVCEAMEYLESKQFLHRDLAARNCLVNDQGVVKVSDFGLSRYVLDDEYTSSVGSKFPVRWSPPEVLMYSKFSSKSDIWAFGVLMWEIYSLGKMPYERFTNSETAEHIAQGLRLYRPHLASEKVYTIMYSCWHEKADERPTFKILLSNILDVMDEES

Row | BTK_I_binding pIC50 | IC50 [nM] | Compound
1 | 7.6 |  | N#C/C(=C\C1CC1)C(=O)N1CCC[C@@H](NC(=O)c2sc3nccc4c3c2NC(=O)N4c2c(F)cc(Oc3ccccc3)cc2F)C1 [Example 175, (R,E)-N-(1-(2-Cyano-3-cyclopropylacryloyl)piperidin-3-yl)-5-(2,6-difluoro-4-phenoxyphenyl)-4-oxo-4,5-dihydro-3H-1-thia-3,5,8-triazaacenaphthylene-2-carboxamide]
2 |  | 63.1 | COc1ccc(N2C(=O)Nc3c(C(=O)N[C@@H]4CCCN(C(=O)/C(C#N)=[13CH]\C5CC5)C4)sc4nccc2c34)c(C)c1 [Example 176, ^13C—(R,Z)—N-(1-(2-Cyano-3-cyclopropylacryloyl)piperidin-3-yl)-5-(4-methoxy-2-methylphenyl)-4-oxo-4,5-dihydro-3H-1-thia-3,5,8-triazaacenaphthylene-2-carboxamide]
3 |  | 39.8 | COc1ccc(N2C(=O)Nc3c(C(=O)N[C@@H]4CCCN(C(=O)/C(C#N)=[13CH]/C5CC5)C4)sc4nccc2c34)c(C)c1 [Example 177, ^13C—(R,E)-N-(1-(2-Cyano-3-cyclopropylacryloyl)piperidin-3-yl)-5-(4-methoxy-2-methylphenyl)-4-oxo-4,5-dihydro-3H-1-thia-3,5,8-triazaacenaphthylene-2-carboxamide]
4 | 7.0 |  | Cc1cc(Oc2ccccc2)ccc1N1C(=O)Nc2c(C(=O)N[C@H]3CNC[C@H](O)C3)sc3nccc1c23 [Example 179, N-((3R,5R)-5-Hydroxypiperidin-3-yl)-5-(2-methyl-4-phenoxyphenyl)-4-oxo-4,5-dihydro-3H-1-thia-3,5,8-triazaacenaphthylene-2-carboxamide]
5 | 7.1 |  | N#CCC(=O)N1CCC[C@@H](NC(=O)c2sc3nccc4c3c2NC(=O)N4c2ccc(Oc3ccccc3)cc2)C1 [Example 181, (R)—N-(1-(2-Cyanoacetyl)piperidin-3-yl)-4-oxo-5-(4-phenoxyphenyl)-4,5-dihydro-3H-1-thia-3,5,8-triazaacenaphthylene-2-carboxamide]
6 | 6.7 |  | CN1CCC[C@@H](NC(=O)c2sc3nccc4c3c2NC(=O)N4c2ccc(Oc3ccccc3)cc2)C1 [Example 182, (R)—N-(1-Methylpiperidin-3-yl)-4-oxo-5-(4-phenoxyphenyl)-4,5-dihydro-3H-1-thia-3,5,8-triazaacenaphthylene-2-carboxamide]
7 | 7.5 |  | Cc1cc(OC2CC2)ccc1N1C(=O)Nc2c(C(=O)N[C@@H]3CCCN(C(=O)/C(C#N)=C/C4CC4)C3)sc3nccc1c23 [Example 185, (R,E)-N-(1-(2-Cyano-3-cyclopropylacryloyl)piperidin-3-yl)-5-(4-cyclopropoxy-2-methylphenyl)-4-oxo-4,5-dihydro-3H-1-thia-3,5,8-triazaacenaphthylene-2-carboxamide]
8 | 6.8 |  | Cc1cc(Oc2ccccc2)ccc1N1C(=O)Nc2c(C(=O)N[C@H]3CN(C)C[C@@H]3F)sc3nccc1c23 [Example 186, N-((3S,4S)-4-Fluoro-1-methylpyrrolidin-3-yl)-5-(2-methyl-4-phenoxyphenyl)-4-oxo-4,5-dihydro-3H-1-thia-3,5,8-triazaacenaphthylene-2-carboxamide]
9 | 6.7 |  | Cc1cc(Oc2ccccc2)ccc1N1C(=O)Nc2c(C(=O)NC3CCCN(C)CC3)sc3nccc1c23 (stereo not shown) [Example 187, 5-(2-Methyl-4-phenoxyphenyl)-N-(1-methylazepan-4-yl)-4-oxo-4,5-dihydro-3H-1-thia-3,5,8-triazaacenaphthylene-2-carboxamide]
10 | 6.7 |  | COCC(C)(C)C(=O)N1CCC[C@@H](NC(=O)c2sc3nccc4c3c2NC(=O)N4c2ccc(Oc3ccccc3)cc2C)C1 [Example 188, (R)—N-(1-(3-Methoxy-2,2-dimethylpropanol)piperidin-3-yl)-5-(2-methyl-4-phenoxyphenyl)-4-oxo-4,5-dihydro-3H-1-thia-3,5,8-triazaacenaphthylene-2-carboxamide]
11 | 6.6 |  | Cc1cc(Oc2ccccc2)ccc1N1C(=O)Nc2c(C(=O)NC3CCCN(C#N)CC3)sc3nccc1c23 (stereo not shown) [Example 189, N-(1-Cyanoazepan-4-yl)-5-(2-methyl-4-phenoxyphenyl)-4-oxo-4,5-dihydro-3H-1-thia-3,5,8-triazaacenaphthylene-2-carboxamide]
12 | 7.0 |  | COC[C@@H](OC)C(=O)N1CCC[C@@H](NC(=O)c2sc3nccc4c3c2NC(=O)N4c2ccc(Oc3ccccc3)cc2C)C1 [Example 190, N—((R)-1-((R)-2,3-Dimethoxypropanoyl)piperidin-3-yl)-5-(2-methyl-4-phenoxyphenyl)-4-oxo-4,5-dihydro-3H-1-thia-3,5,8-triazaacenaphthylene-2-carboxamide]
13 | 7.1 |  | Cc1cc(Oc2ccccc2)ccc1N1C(=O)Nc2c(C(=O)N[C@@H]3CCCN(C(=O)[C@@H]4CCNC4)C3)sc3nccc1c23 [Example 191, 5-(2-Methyl-4-phenoxyphenyl)-4-oxo-N—((R)-1-((R)-pyrrolidine-3-carbonyl)piperidin-3-yl)-4,5-dihydro-3H-1-thia-3,5,8-triazaacenaphthylene-2-carboxamide]
14 | 6.8 |  | Cc1cc(Oc2ccccc2)ccc1N1C(=O)Nc2c(C(=O)NC3(CO)CCOCC3)sc3nccc1c23 [Example 192, N-(4-(Hydroxymethyl)tetrahydro-2H-pyran-4-yl)-5-(2-methyl-4-phenoxyphenyl)-4-oxo-4,5-dihydro-3H-1-thia-3,5,8-triazaacenaphthylene-2-carboxamide]
15 | 7.3 |  | CCOc1ccc(N2C(=O)Nc3c(C(=O)N[C@@H]4CCCN(C(=O)/C(C#N)=C/C5CC5)C4)sc4nccc2c34)c(C)c1 [Example 193, (R,E)-N-(1-(2-Cyano-3-cyclopropylacryloyl)piperidin-3-yl)-5-(4-ethoxy-2-methylphenyl)-4-oxo-4,5-dihydro-3H-1-thia-3,5,8-triazaacenaphthylene-2-carboxamide]
16 | 6.9 |  | C=CC(=O)N1CCC[C@@H](NC(=O)c2sc3nccc4c3c2NC(=O)N4c2ccccc2F)C1 [Example 194, (R)—N-(1-Acryloylpiperidin-3-yl)-5-(2-fluorophenyl)-4-oxo-4,5-dihydro-3H-1-thia-3,5,8-triazaacenaphthylene-2-carboxamide]
17 | 7.4 |  | Cc1cc(Oc2ccccc2)ccc1N1C(=O)Nc2c(C(=O)N[C@@H]3CCCN(C(=O)/C(C#N)=C\C(C)(C)N)C3)sc3nccc1c23 [Example 195, (R,Z)—N-(1-(4-Amino-2-cyano-4-methylpent-2-enoyl)piperidin-3-yl)-5-(2-methyl-4-phenoxyphenyl)-4-oxo-4,5-dihydro-3H-1-thia-3,5,8-triazaacenaphthylene-2-carboxamide]
18 | 6.8 |  | Cc1cc(Oc2ccccc2)ccc1N1C(=O)Nc2c(C(=O)N[C@@H]3CCCN(C(=O)/C(C#N)=C/C4(N)CC4)C3)sc3nccc1c23 [Example 196, (R,E)-N-(1-(3-(1-Aminocyclopropyl)-2-cyanoacryloyl)piperidin-3-yl)-5-(2-methyl-4-phenoxyphenyl)-4-oxo-4,5-dihydro-3H-1-thia-3,5,8-triazaacenaphthylene-2-carboxamide]
19 | 6.8 |  | Cc1cc(Oc2ccccc2)ccc1N1C(=O)Nc2c(C(=O)N[C@H]3CNC[C@@H](O)C3)sc3nccc1c23 [Example 197, N-((3R,5S)-5-Hydroxypiperidin-3-yl)-5-(2-methyl-4-phenoxyphenyl)-4-oxo-4,5-dihydro-3H-1-thia-3,5,8-triazaacenaphthylene-2-carboxamide]
20 | 7.0 |  | Cc1cc(Oc2ccccc2)ccc1N1C(=O)Nc2c(C(=O)N[C@@H]3CCCN(C(=O)[C@@H]4CCOC4)C3)sc3nccc1c23 [Example 198, 5-(2-Methyl-4-phenoxyphenyl)-4-oxo-N—((R)-1-((R)-tetrahydrofuran-3-carbonyl)piperidin-3-yl)-4,5-dihydro-3H-1-thia-3,5,8-triazaacenaphthylene-2-carboxamide]
21 | 6.6 |  | Cc1cc(Oc2ccccc2)ccc1N1C(=O)Nc2c(C(=O)N[C@@H]3CCCN(C(=O)/C=C/C4CC4)C3)sc3nccc1c23 [Example 199, (R,E)-N-(1-(3-Cyclopropylacryloyl)piperidin-3-yl)-5-(2-methyl-4-phenoxyphenyl)-4-oxo-4,5-dihydro-3H-1-thia-3,5,8-triazaacenaphthylene-2-carboxamide]
22 | 6.6 |  | Cc1cc(Oc2ccccc2)ccc1N1C(=O)Nc2c(C(=O)N[C@H]3CN(C)C[C@H]3O)sc3nccc1c23 [Example 200, N-((3S,4R)-4-Hydroxy-1-methylpyrrolidin-3-yl)-5-(2-methyl-4-phenoxyphenyl)-4-oxo-4,5-dihydro-3H-1-thia-3,5,8-triazaacenaphthylene-2-carboxamide]
23 | 6.6 |  | Cc1cc(Oc2ccccc2C2CC2)ccc1N1C(=O)Nc2c(C(=O)N[C@@H]3CCCN(C)C3)sc3nccc1c23 [Example 201, (R)-5-(4-(2-Cyclopropylphenoxy)-2-methylphenyl)-N-(1-methylpiperidin-3-yl)-4-oxo-4,5-dihydro-3H-1-thia-3,5,8-triazaacenaphthylene-2-carboxamide]
24 | 6.7 |  | Cc1cc(Oc2ccccc2)ccc1N1C(=O)Nc2c(C(=O)NC3CNC(=O)C3)sc3nccc1c23 (stereo not shown) [Example 202, 5-(2-Methyl-4-phenoxyphenyl)-4-oxo-N-(5-oxopyrrolidin-3-yl)-4,5-dihydro-3H-1-thia-3,5,8-triazaacenaphthylene-2-carboxamide]

Row | Compound | BTK_I_binding pIC50 | IC50 [nM]
25 | Cc1cc(OC2CCCCC2)ccc1N1C(=O)Nc2c(C(=O)N[C@@H]3CCCN(C(=O)/C(C#N)=C/C4CC4)C3)sc3nccc1c23 [Example 178, (R,E)-N-(1-(2-Cyano-3-cyclopropylacryloyl)piperidin-3-yl)-5-(4-(cyclohexyloxy)-2-methylphenyl)-4-oxo-4,5-dihydro-3H-1-thia-3,5,8-triazaacenaphthylene-2-carboxamide] |  | 100
